{"source": "patent US20040229844A1", "about": "“Method of treating atherosclerosis, dyslipidemias and related conditions” (priority 2003, published 2004)", "key": {"[1]": {"system": "prostaglandin D2-induced vasodilation", "test": "Prostaglandin D2-induced vasodilation in mice", "format": "in vivo, mouse", "conditions": "FIG. 1", "description": "Compound D suppressed PGD-2 induced vasodilation in the mouse (FIG. 1). The DP antagonists tested suppressed nicotinic acid-induced vasodilation in the mouse; data for selected compounds is provided in FIGS. 2 and 3."}, "[2]": {"system": "nicotinic acid-induced vasodilation", "test": "Nicotinic acid-induced vasodilation in mice (ear perfusion, laser Doppler)", "format": "in vivo, mouse", "conditions": "male C57BL/6 mice, DP antagonist ~40 mpk i.p., nicotinic acid ~100 mpk s.c., FIGS. 2 and 3", "method": "Blood flow in the mouse ear (a measure of vasodilation, a prominent component of flushing in humans) is measured after administration of nicotinic acid to mice that had been pretreated with vehicle (as a control) or a DP antagonist. Specifically, male C57BL/6 mice (˜25 g) were used in the study. Five mice were evaluated in each test group. Nembutal was diluted with water to a final concentration of 5 mg/ml and injected 0.3 ml/mouse intraperitoneally. DP antagonists were dissolved in 5% hydroxypropyl β-cyclodextrin at a final concentration of 5 mg/mi and the compounds were administered intraperitoneally at a volume of 0.2 mi/mouse (˜40 mpk). Nicotinic acid was dissolved in 5% hydroxypropyl β-cyclodextrin at a final concentration of 12.5 mg/mi. […]\nPerfusion of mouse ear skin was monitored with a laser Doppler perfusion imager (PeriScan PIM II, Perimed, Sweden) every 30 seconds for 15 minutes starting 5 minutes prior to nicotinic acid administration. Percent changes in mean perfusion over the 10 minute period after vehicle or nicotinic acid administration were calculated and a graph of percent change in mean perfusion vs. time was generated for each animal. The area under the curve (AUC) of mean perfusion (% Δ×min) was then calculated from each graph and the results are expressed in mean AUC±SEM for each group."}}, "note": "Entries after “also recorded” stand apart in the source; their conditions may differ."}
{"smiles": "CC(O)c1cc(S(C)(=O)=O)cc2c3c(n(Cc4ccc(Cl)cc4)c12)[C@@H](CC(=O)O)CC3", "note": "(some centres unmarked) [Compound D]", "values": [{"measurement": "inhibition of prostaglandin D2-induced vasodilation", "setting": "[1]", "value": "inhibits; also recorded: suppressed"}, {"measurement": "inhibition of nicotinic acid-induced vasodilation", "setting": "[2]", "value": "inhibits"}]}
